In US20080234233A1, “MEDICAMENT FOR TREATMENT OF NEURODEGENERATIVE DISEASES” (INSTITUTE OF MEDICINAL MOLECULAR DESIGN INC., priority 2002, published 2008):

Experiments:
NF-κ B activation = experiment: Inhibitory activity of NF-κB activation, luciferase reporter assay under TNF-α stimulation in HepG2; type: cell-based, human; details: HepG2, TNF-α 40 ng/ml, 4 hours; for inhibition at 1 µg/mL / inhibition at 10 µg/mL: Homo sapiens, read-out: Inhibitory rate against NF-κB activation (%)
Procedure, shortened: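 HepG2 cells transiently transfected with luciferase reporter carrying five tandem NF-κB binding sites, then stimulated with TNF-α (40 ng/ml) ± compound for 4 hours. Luminescent luciferase activity measured; inhibition expressed relative to activity without compound.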

AP-1 activation [1] = experiment: Inhibition against AP-1 activation by TNF α stimulation, luciferase reporter assay in HeLa; type: cell-based, human; details: TNF-α 40 ng/ml, 4 hours
Procedure: Measurement of Inhibition Against AP-1 Activation by TNF α Stimulation
Using a transfection reagent(Effectene; QIAGEN), the human uterine cancer cell strain HeLa was transfected with a plasmid(pAP-1-Luc Reporter Plasmid: […]) integrated with an oligonucleotide having seven tandem copies of AP-1 binding sequences(TGACTAA) on an upstream region of firefly luciferase gene(Luc) according to the QIAGEN's protocol, and the cells were incubated for 6 to 24 hours. After addition of TNF-α (40 ng/ml) in the presence or absence of a test compound, the cells were incubated for 4 hours, and intracellular luciferase activity was measured by using PicaGene LT(TOYO INK MFG Co., Ltd.) and a chemical luminescence measurement apparatus([…]luor Plus; TECAN). The inhibitory ratio was measured as a ratio relative to the value of the luciferase activity in the absence of the test compound.

AP-1 activation [2] = experiment: Inhibition against AP-1 activation by forced expression of MEKK-1, luciferase reporter assay in HepG2; type: cell-based, human; details: HepG2, MEKK-1 forced expression, 24 hours
Procedure: Measurement of Inhibition Against AP-1 Activation by Forced Expression of MEKK-1
Using a transfection reagent (Effectene; QIAGEN), the human hepatoma cell strain HepG2 was cotransfected with a plasmid (pAP-1-Luc Reporter Plasmid: […]) integrated with an oligonucleotide having seven tandem copies of AP-1 binding sequences (TGACTAA) on an upstream region of firefly luciferase gene (Luc) and the MEKK-1 expression plasmid (pFCMEKK: […]) according to the QIAGEN's protocol, and the cells were incubated for 20 to 24 hours. Then the cells were incubated in the presence or absence of a test compound for 24 hours, and then intracellular luciferase activity was measured by using PicaGene LT (TOYO INK MFG Co., Ltd.) and a chemical luminescence measurement apparatus ([…]luor Plus; TECAN). The inhibitory ratio was measured as a ratio relative to the value of the luciferase activity in the absence of the test compound.

GSK3 β = experiment: Amount of phosphorylated GSK3 β in MOLT-4F cells; type: cell-based, human; details: 2 μM, 24 hours
Procedure: When Compound No. 4 (2 μM) of the present invention was allowed to act on MOLT-4F cells(human leukemia cells) for 24 hours, the amount of phosphorylated GSK3 β, produced by phosphorylation of GSK3 β, was increased, and it is well presumed that similar phenomena may possibly occur in nerve cells. Since GSK3 β is inactivated by the phosphorylation, it is considered that the increase of the amount of the phosphorylated GSK3 β substantially means the inhibition of GSK3 β. […] (Refer to “The Biochemical Journal”, (England), 2001, Vol. 359, No. PT1, p. 1-16; “Current Opinion in Neurobiology”, (England), 2002, Vol. 12, No. 3, p. 275-278; “Trends in Molecular Medicine”, (England), 2002, Vol. 8, No. 3, p. 126-132; “Proceedings of The National Academy of Sciences of The United States of America”, (USA), 1996, Vol. 93, No. 7, p. 2719-2723; “The Journal of Biological Chemistry”, (USA), 2002, Vol. 277, No. 44, p. 42060-42065; “Proceedings of The National Academy of Sciences of The United States of America”, (USA), 2003, Vol. 100, No. 2, p. 721-726; “Annals of The New York Academy of Sciences”, (USA), 2000, Vol. 920, p. 107-114; “Nature”, (England), 2003, Vol. 423, No. 6938, p. 435-439; and “Neuron”, (USA), 2003, Vol. 38, No. 4, p. 555-565.)

[3] = system: rat hippocampus injected with human β amyloid; experiment: Inhibitory activity against hypoplasia of memory formation (LTP), Alzheimer's model by injection of human β amyloid into the rat hippocampus; type: in vivo; details: 30 mg/kg intraperitoneally once a day, FIG. 1
Description: Several places of rat hippocampus were infused with a 1:1 mixture of A β 1-40 and A β 1-43 which are human β amyloids (Aβ) for 7 continuous days by the microinjection method. On the 8th day, bipolar stimulating electrodes were fixed to the perforate pathway, and recording electrodes were fixed to the stratum moleculare of the hippocampus dentate gyrus under urethane anesthesia. A mono-synaptic reaction was searched by about 14 to 20 mV of test pulse from the stimulating electrode. Long-term potentiations (LTP: neurophysiological memory model phenomena) were compared by the test simulation and tetanic stimulation, and the existence of hypoplasia of memory formation was verified which is a problem in Alzheimer's disease. Three days before the start of the injection of β amyloid, saline for the control group and the test compound (30 mg/kg) for the dosing group were administered intraperitoneally once a day, and a comparison of LTP was carried out.

[4] = Homo sapiens, Drug concentration at 10 μg/mL, read-out: Inhibitory rate against AP-1 activation(%)

| Inhibitory rate against NF-κB activation (%) (NF-κ B activation; Drug concentration at 1 μg/mL) | Inhibitory rate against AP-1 activation(%) (AP-1 activation [1]; Drug concentration at 10 μg/mL) | Inhibitory rate against NF-κB activation (%) (NF-κ B activation; Drug concentration at 10 μg/mL) | SMILES | inhibition at 1 µg/mL (NF-κ B activation; Drug concentration at 1 μg/mL) [%] | inhibition at 10 µg/mL (NF-κ B activation; Drug concentration at 10 μg/mL) [%] | Inhibitory rate against AP-1 activation(%) (AP-1 activation [1]; Drug concentration at 1 μg/mL) | other results |
| --- | --- | --- | --- | --- | --- | --- | --- |
| 81.7 | 51.5 | 92.9 | O=C(Nc1cc(C(F)(F)F)cc(C(F)(F)F)c1)c1cc(-c2ccsc2)ccc1O [compound 29] |  |  |  |  |
| 85.4 | 75.4 | 97.1 | O=C(Nc1cc(Cl)cc(Cl)c1)c1cc(I)ccc1O [compound 127] |  |  |  |  |
| 85.3 | 49.9 | 94.4 | O=C(Nc1nc(C(F)(F)F)c(Br)s1)c1cc(Br)ccc1O [compound 187] |  |  |  |  |
| 94.2 | 67.7 | 97.0 | O=C(Nc1cc(Cl)cc(Cl)c1)c1cc(F)ccc1O [compound 124] |  |  |  |  |
| 94.9 | 91.2 | 98.6 | O=C(Nc1cc(C(F)(F)F)cc(C(F)(F)F)c1)c1cc(Br)ccc1O [compound 6] |  |  | 48.4 |  |
| 84.5 | 74.8 | 96.8 | O=C(Nc1cc(Cl)cc(Cl)c1)c1cc(Cl)ccc1O [compound 125] |  |  | 22.7 |  |
| 77.1 | 83.8 | 92.8 | O=C(Nc1cc(Cl)cc(Cl)c1)c1cc(Br)ccc1O [compound 126] |  |  | 39.3 |  |

The remaining lines, values behind:

| SMILES | Inhibitory rate against NF-κB activation (%) (NF-κ B activation; Drug concentration at 1 μg/mL) | Inhibitory rate against AP-1 activation(%) (AP-1 activation [1]; Drug concentration at 10 μg/mL) | Inhibitory rate against NF-κB activation (%) (NF-κ B activation; Drug concentration at 10 μg/mL) | inhibition at 1 µg/mL (NF-κ B activation; Drug concentration at 1 μg/mL) [%] | inhibition at 10 µg/mL (NF-κ B activation; Drug concentration at 10 μg/mL) [%] | Inhibitory rate against AP-1 activation(%) (AP-1 activation [1]; Drug concentration at 1 μg/mL) | other results |
| --- | --- | --- | --- | --- | --- | --- | --- |
| CCOC(=O)c1sc(NC(=O)c2cc(-c3ccccc3)ccc2O)nc1-c1ccccc1 [compound 225] | 34.6 | 33.5 |  |  |  |  |  |
| CC(C)(C)C(=O)c1sc(NC(=O)c2cc(Cl)ccc2O)nc1C(C)(C)C [compound 199, 5-Chloro-N-{4-[(1,1-dimethyl)ethyl]-5-[(2,2-dimethyl)propionyl]thiazol-2-yl}-2-hydroxybenzamide] |  |  |  | 96.4 | 98.4 |  | Inhibitory ratio of AP-1 activation(%) (AP-1 activation [2]; Drug concentration 1 μg/mL): 70.6% |
| O=C(Nc1cc(C(F)(F)F)cc(C(F)(F)F)c1)c1cc(-c2ccccc2)ccc1O [compound 23] | 91.8 | 60.9 | 96.8 |  |  | 18.1 |  |
| O=C(Nc1cc(C(F)(F)F)cc(C(F)(F)F)c1)c1cc(/C=C/c2ccccc2)ccc1O [compound 19] | 95.5 | 33.9 | 96.9 |  |  |  |  |
| CC(=O)Nc1cc(O)c(C(=O)Nc2cc(C(F)(F)F)cc(C(F)(F)F)c2)cc1Cl [compound 50, 4-Acetylamino-N-[3,5-bis(trifluoromethyl)phenyl]-5-chloro-2-hydoxybenzamide] | 69.9 |  | 96.0 |  |  |  | Inhibitory ratio of AP-1 activation(%) (AP-1 activation [2]; Drug concentration 1 μM): 90.7%; Inhibitory ratio of AP-1 activation(%) (AP-1 activation [2]; Drug concentration 1 μg/mL): 99.4% |
| O=C(Nc1cc(C(F)(F)F)cc(C(F)(F)F)c1)c1cc(I)ccc1O [compound 7, N-[3,5-bis(trifluoromethyl)phenyl]-2-hydroxy-5-iodobenzamide] |  |  |  | 86.6 | 85.4 |  | inhibition at 1 µg/mL (AP-1 activation [1]; Homo sapiens, Drug concentration at 1 μg/mL, read-out: Inhibitory rate against AP-1 activation(%)): 25.4%; inhibition at 10 µg/mL (AP-1 activation [1]; [4]): 82.4% |
| O=C(Nc1cc(C(F)(F)F)cc(C(F)(F)F)c1)c1cc(C#Cc2ccccc2)ccc1O [compound 22, N-[3,5-bis(trifluoromethyl)phenyl]-2-hydroxy-5-(phenylethynyl)-benzamide] |  |  |  | 83.9 | 97.1 |  | inhibition at 10 µg/mL (AP-1 activation [1]; [4]): 44.1% |
| O=C(Nc1cc(C(F)(F)F)cc(C(F)(F)F)c1)c1cc(Cl)ccc1O [compound 4, N-[3,5-bis(trifluoromethylphenyl)]-5-chloro-2-hydroxybenzamide] | 95.7 | 89.1 | 97.5 |  |  | 42.4 | amount of phosphorylated GSK3 β (GSK3 β): increased; inhibitory activity against hypoplasia of memory (LTP) [3]: inhibitory activity against hypoplasia of memory |
| CCc1sc(NC(=O)c2cc(Br)ccc2O)nc1C(C)(C)C [compound 195, 5-Bromo-N-{4-[(1,1-dimethyl)ethyl]-5-ethylthiazol-2-yl}-2-hydroxybenzamide] |  |  |  | 90.5 | 98.1 |  | Inhibitory ratio of AP-1 activation(%) (AP-1 activation [2]; Drug concentration 1 μM): 91.2%; Inhibitory ratio of AP-1 activation(%) (AP-1 activation [2]; Drug concentration 1 μg/mL): 95.5% |
| O=C(Nc1cc(C(F)(F)F)cc(C(F)(F)F)c1)c1cc(C(=O)N2CCC(Cc3ccccc3)CC2)ccc1O [compound 40, N-[3,5-Bis(trifluoromethyl)phenyl]-2-hydroxy-5-(4-benzylpiperidine-1-carbonyl)-benzamide] |  |  |  | 44.9 | 96 |  | melting point: 179 to 180 °C |
| CC(=O)Oc1ccccc1C(=O)Nc1cc(Cl)cc(Cl)c1 [compound 120, 2-acetoxy-N-(3,5-dichlorophenyl)benzamide] |  |  |  | 88.6 | 97.5 |  | melting point: 218 to 219 °C |
| O=C(Nc1cc(C(F)(F)F)cc(C(F)(F)F)c1)c1cc(Cl)cnc1O [compound 75] | 58.1 | 56.7 | 82.2 |  |  | 33.3 |  |
